Results taken from paper PMC11181328 (Journal of Medicinal Chemistry, 2024).
Read-outs that look alike come from different tables or passages of the source.

Columns and labels:
in vitro [1] = details: human, s9
male Swiss Webster mice [2] = test: Locomotor activity assay; type: in vivo, mouse; details: s.c., 30 min session; for average speed by time versus vehicle: Figure 6F–H
Protocol: This hypolocomotion could result in false positives in assays of evoked antinociception such as WWTI.[115] Thus, a locomotor activity assay was utilized to assess this end point in accordance with previous studies.[28] In brief, the day prior to testing, mice were placed in the open field chamber for acclimation. On the test day, they were injected with compounds 21, 23, NLF, or vehicle and immediately placed back into the open field chamber. Photo beam breaks then recorded the mouse’s locomotion over a 30 min test period.
Six open field activity chambers (Med Associates, St. Albans, VT) were used in the locomotor activity study. Each chamber is located inside a sound-attenuating cubicle (Med Associates) and is equipped with a ventilation system. The interior of the chamber consists of a 27 × 27 cm plexiglass enclosure wired with photobeam cells and connected to a computer console that monitors the activity of the animal.
The day before the experiment, mice were acclimated to the activity chambers for a period of 30 min. On the day of the experiment, mice were administered vehicle or test compound s.c., placed into the activity chambers immediately and activity was monitored and recorded for a period of 30 min.
The primary dependent measures are total (1) distance traveled (cm), (2) ambulatory counts, (3) vertical counts, and (4) average speed (cm/s) within the 30 min session. Data are shown as mean ± SEM. Data were compared using one-way or two-way ANOVA as appropriate and a significant ANOVA was followed by a Dunnet’s post hoc test as appropriate. Statistical significance was defined as p < 0.05.

[3] = Drug distribution study (brain and plasma, LC-MS/MS); type: in vivo, mouse; details: 0.1 mg/kg s.c.; for Kp at 5 min / Kp at 10 min / Kp at 0.5 h / Kp at 1 h: Swiss Webster, mouse, sc, read-out: B/P (brain-to-plasma concentration ratio); for Kp at 0.5 h: 30 min; for Kp at 1 h: 60 min
Protocol: To examine the potential for these compounds to exert their effects on the central nervous system, a drug distribution study monitoring blood–brain barrier penetration was used. […] Plasma and brain homogenate were then analyzed via liquid chromatography with tandem mass spectrometry (LC-MS/MS) to allow calculation of brain-to-plasma ratios.[78]
The test compound was administered s.c., and a group of Swiss Webster mice was euthanized by decapitation at each time point (5, 10, 30, 60 min post injection) allowing whole brain and blood samples to be harvested. Brain samples were washed with saline to ensure removal of any blood on the isolated brain and were then immersed in 300 μL saline. Blood samples were centrifuged for 10 min (15,000g; 4 °C) to collect plasma. Brain and plasma samples were stored at −80 °C until further analysis.
Identification and quantification of test compound in mouse brain and plasma were performed using a modification of a previously described method with an internal standard of naloxone-d5.[126] Compounds were extracted from both blood and brain by a liquid/liquid extraction. Briefly, brain tissue samples were homogenized 1-part tissue to 3-parts water. Seven-point calibration curves (10–1000 ng/mL or ng/g) in plasma, drug free control, a negative control without internal standard in plasma and brain, and quality control specimens in plasma and brain (30, 300, and 750 ng/mL or ng/g) were prepared and analyzed with each batch of samples. […], was added at 10 ng/mL concentration to aliquots of either 100 μL for blood or 400 μL for brain homogenate to each calibrator, control, or specimen except the negative control. To these samples, 0.5 mL of saturated carbonate/bicarbonate buffer (1:1, pH 9.5) and 2.0 mL of chloroform/2-propanol (8:2) were added. The samples were then mixed and centrifuged. The top, aqueous layer was aspirated, and the organic layer was transferred to a clean test tube and evaporated to dryness under nitrogen. The samples were then reconstituted in 80:[…] and transferred to autosampler vials for analysis. The chromatographic separation of test compounds and naloxone-d5 was accomplished using a Shimadzu Nexera X2 liquid chromatography system and a Zorbax XDB-C18 4.6 × 75 mm, 3.5 μm column (Agilent Technologies, Santa Clara, CA). The mobile phases consisted of (A) water with 1 g/L ammonium formate and 0.1% formic acid, and (B) methanol. The flow rate was set to 1 mL/min. The mobile phase started with 20% B and was increased to 80% B at 1.0 min and held constant for 1.5 min before returning to 20% B. The system detector was a Sciex 6500 QTRAP system with an IonDrive Turbo V source for TurboIonSpray (Sciex, Ontario, Canada) that had the curtain gas flow rate set at 30 mL/min and the ion source gases 1 and 2 at 60 mL/min. The source temperature was set at 650 °C with an ionspray voltage was 5500 V. The declustering potential was 58 eV.
The primary dependent measures are (1) the plasma concentration of the test compound (μg/mL), (2) the brain concentration of the test compound (μg/g), and (3) the brain-to-plasma concentration ratio calculated as [brain]/[plasma]. Concentrations were determined by a linear regression plot based on peak ratios of the calibrators. Data are shown as mean ± SEM. Data were compared using one-way ANOVA as appropriate and a significant ANOVA was followed by a Dunnet’s post hoc test as appropriate. Statistical significance was defined as p < 0.05.

DOR = molecular target: T1, DOR (Homo sapiens, UniProt P41143); test: Competitive radioligand binding assay, DOR
T1 construct: expressed in transfected cells; membrane homogenate

male Swiss Webster mice [4] = test: Warm-water tail immersion assay, receptor selectivity study; type: in vivo, mouse; details: for antagonism of antinociceptive effects by nor-BNI (KOR antagonist) pretreatment: 10 mg/kg nor-BNI s.c. 24 h prior to 0.1 mg/kg test compound s.c. (23 also 0.05 mg/kg); for antagonism of antinociceptive effects by β-FNA (MOR antagonist) pretreatment: 10 mg/kg β-FNA s.c. 24 h prior to 0.1 mg/kg test compound s.c.; for antagonism of antinociceptive effects by NTI (DOR antagonist) pretreatment: 15 mg/kg NTI s.c. 30 min prior to 0.1 mg/kg test compound s.c. (23 also 0.05 mg/kg); for antagonism of antinociceptive effects by NTI and nor-BNI pretreatment together: nor-BNI 10 mg/kg + NTI 15 mg/kg s.c. prior to test compound
KOR [5] = molecular target: T2, KOR (Mus musculus, UniProt P33534); test: [35S]-GTPγS functional assay, KOR; type: biochemical; details: for EC50: mKOR-CHO membranes; for Emax: percent of U50,488 full agonist control
T2 construct: expressed in transfected cells; membrane homogenate

MOR = MOR (Mus musculus, UniProt P42866); test: [35S]-GTPγS functional assay, MOR; type: biochemical; design: expressed in transfected cells; membrane homogenate; details: for EC50: mMOR-CHO membranes; for [35S]-GTPγS functional activity MOR Emax (%): percent of DAMGO full agonist control; for Emax: read-out: [35S]-GTPγS functional activity MOR Emax (%)
in vitro [6] = details: Sprague-Dawley, rat, s9
male Swiss Webster mice [7] = test: Warm-water tail immersion assay, time course study; type: in vivo, mouse; details: for onset of antinociceptive effects: s.c.
[8] = test system: male and female Sprague–Dawley rats; details: intravenous, FR5 schedule of reinforcement, 2 h sessions
KOR [9] = molecular target: T2, KOR; test: Competitive radioligand binding assay, KOR; details: for radioligand binding affinity (Ki, nM) KOR: [3H]diprenorphine, mKOR-CHO membranes; for selectivity ratio δ/κ / selectivity ratio μ/κ: ratio of Ki values
[10] = warm water tail immersion studies (Figure 3)

Row | Structure (SMILES) | half-life (in vitro [1]) | microsomal CLint (in vitro [1]) | locomotor activity (male Swiss Webster mice [2]) | average speed by time versus vehicle (male Swiss Webster mice [2]) | time point of highest plasma concentration [3] | Ki (DOR) | antagonism of antinociceptive effects by nor-BNI (KOR antagonist) pretreatment (male Swiss Webster mice [4]) | antagonism of antinociceptive effects by β-FNA (MOR antagonist) pretreatment (male Swiss Webster mice [4]) | antagonism of antinociceptive effects by NTI (DOR antagonist) pretreatment (male Swiss Webster mice [4]) | antagonism of antinociceptive effects by NTI and nor-BNI pretreatment together (male Swiss Webster mice [4]) | EC50 (KOR [5]) | Emax (KOR [5]) | EC50 (MOR) | [35S]-GTPγS functional activity MOR Emax (%) (MOR) | Emax (MOR) | antinociceptive effects significant until (time postinjection) (male Swiss Webster mice [7]; 0.1 mg/kg s.c.) | onset of antinociceptive effects (male Swiss Webster mice [7]) | duration of action (male Swiss Webster mice [7]; [10]) | reinforcing effect (number of infusions earned versus saline) [8] | Ki (KOR [9]) | also measured
1 | CN(C(=O)/C=C/c1ccco1)[C@H]1CC[C@@]2(O)[C@H]3Cc4ccc(O)c5c4[C@@]2(CCN3CC2CC2)[C@H]1O5.Cl [Compound 21, 17-Cyclopropylmethyl-3,14β-dihydroxy-4,5α-epoxy-6α-[(2E)-3′-(furan-2″-yl)-N-methylprop-2-enamido]morphinan Hydrochloride] | > 2 h | < 5.8 µL/min/mg | significant decrease in vertical counts at the largest dose tested | did not result in average speeds significantly different from vehicle at any time point | 5 min | 930 ± 210 pM | antagonized | not antagonized by β-FNA | antagonized | seemed to compound the decrease | 40 pM | 107 ± 2.6% | 580 ± 170 pM | low efficacy MOR partial agonism | 19.7 ± 0.7% | 3 h | approximately 30 min | > 3 h | no dose maintained a significant number of infusions earned above saline | 140 ± 20 pM | Kp at 5 min ([3]; brain and plasma): 0.027; Kp at 10 min ([3]; brain and plasma): 0.186; Kp at 0.5 h ([3]; brain and plasma): 0.633; Kp at 1 h ([3]; brain and plasma): 0.938; radioligand binding affinity (Ki, nM) DOR (DOR; [3H]diprenorphine, hDOR-CHO membranes): subnanomolar; half-life at 1 h, 1 µM (in vitro [6]): 1.16 h; microsomal CLint at 1 h, 1 µM (in vitro [6]): 10.1 µL/min/mg; duration of action (male Swiss Webster mice [7]; 0.1 mg/kg s.c.): 3 h; radioligand binding affinity (Ki, nM) KOR (KOR [9]): subnanomolar; selectivity ratio δ/κ (KOR [9]): 7; selectivity ratio μ/κ (KOR [9]): 1; Selectivity Ratio MOR/KOR (KOR [9]; supplement csv): 1.43
2 | CN(C(=O)/C=C/c1ccco1)[C@@H]1CC[C@@]2(O)[C@H]3Cc4ccc(O)c5c4[C@@]2(CCN3CC2CC2)[C@H]1O5.Cl [Compound 23, 17-Cyclopropylmethyl-3,14β-dihydroxy-4,5α-epoxy-6β-[(2E)-3′-(furan-2″-yl)-N-methylprop-2-enamido]morphinan Hydrochloride] | > 2 h | < 5.8 µL/min/mg | dose-dependent decrease in locomotor activity across all end points | significantly different from vehicle | 5 min | 7930 ± 1020 pM | slight, nonsignificant decrease | not antagonized by β-FNA | antagonized by NTI | enhanced antagonism | 140 ± 20 pM | 106.5 ± 0.7% | 5310 ± 530 pM | low efficacy MOR partial agonism | 14.2 ± 1.77% | 6 h | approximately 30 min | > 3 h | no dose maintained a significant number of infusions earned above saline | 220 ± 30 pM | Kp at 5 min ([3]; brain): 0.05; Kp at 10 min ([3]; brain): 0.762; Kp at 0.5 h ([3]; brain): 0.645; Kp at 1 h ([3]; brain): 1.45; half-life (in vitro [6]): > 2 h; microsomal CLint (in vitro [6]): < 5.8 µL/min/mg; antinociceptive effects significant until (time postinjection) (male Swiss Webster mice [7]; 0.05 mg/kg s.c.): 3 h; duration of action (male Swiss Webster mice [7]; 0.5 mg/kg s.c.): 3 h; radioligand binding affinity (Ki, nM) KOR (KOR [9]): subnanomolar; selectivity ratio δ/κ (KOR [9]): 36; selectivity ratio μ/κ (KOR [9]): 4
